According to patent publication US10086039B2, “Lamin A, an activator of longevity/anti-aging SIRT1 protein” (THE UNIVERSITY OF HONG KONG, priority 2012, dated 2018):

Columns and labels:
Zmpste24−/− mice [1] = test: Catalase, acetyl p53 and H3K9ac levels in BMSCs isolated from treated Zmpste24−/− mice; type: in vivo, mouse; conditions: resveratrol 20 μg/ml in drinking water
Procedure: (§1) Zmpste24^−/− mice have been described previously (Pendas et al., 2002). Mouse experimentation was performed in accordance with the guidelines of the Committee on the Use of Live Animals in Teaching and Research (CULATR) at the University of Hong Kong. New-born Zmpste24^−/− mice and wild-type controls were fed with resveratrol (20 μg/ml) or N-acetyl Cysteine (1 mg/ml) in drinking water. The survival of resveratrol-treated, NAC-treated, or vehicle-treated Zmpste24^−/− mice was recorded and their body weight was monitored weekly. The trabecular bone organization and bone mineral density were determined by micro-CT. The survival rate was analyzed by Kaplan-Meier method and statistical comparison was performed by Log-rank (Mantel-Cox) Test.
(§2) Western blotting was performed as described previously (Liu et al., 2005). Relative band intensity was measured by IMAGE J® and normalized to corresponding wild-type or untreated controls as indicated.
(§3) Briefly, resveratrol was supplemented at a concentration of 20 μg/ml in drinking water. Four months after treatment, BMSCs were collected for examination and comparison between resveratrol-treated and vehicle-treated Zmpste24^−/− mice.

NM-associated SIRT1 = test: NM association of SIRT1 in BMSCs (subcellular fractionation, Western blotting); type: cell-based, mouse; conditions: wild-type and Zmpste24−/− BMSCs, different concentrations, compared to untreated controls
Procedure: Cells were fractionated as described (Mendez and Stillman, 2000). Briefly, the cells were suspended in 100 μl ice-cold buffer A (10 mM HEPES, pH 7.9, 10 mM KCl, 1.5 mM MgCl2, 0.34 M sucrose, 10% glycerol, 1 mM DTT, protease inhibitors). After the addition of 0.1% Triton X-100, the cell suspension was mixed gently, incubated on ice for 5 min and centrifuged at 1300×g at 4° C. for 4 min. The supernatant (S1) was transferred to a new tube and clarified by high-speed centrifugation (12000×g, 10 min, 4° C.). The remaining nuclei pellet (P1) was washed once with 100 μl buffer A and then resuspended in 100 μl buffer A supplemented with 1 mM CaCl2 and 2 units of micrococcal nuclease, and incubated at 37° C. for 15 min. The reaction was stopped by adding 1 mM EGTA and the suspension was then centrifuged at 1300×g at 4° C. for 4 min. The resultant pellet was resuspended in 100 μl of buffer B (3 mM EDTA, 0.2 mM EGTA, 1 mM DTT) and centrifuged at 1700×g at 4° C. for 4 min. […]
Western blotting was performed as described previously (Liu et al., 2005). Relative band intensity was measured by IMAGE J® and normalized to corresponding wild-type or untreated controls as indicated. […]

Zmpste24−/− mice [2] = test: BMSC colony-forming efficiency after in vivo treatment of Zmpste24−/− mice; set-up: species or system mouse; conditions: resveratrol 20 μg/ml in drinking water, four months, vs vehicle
Procedure: as §1
Bone marrow stromal cells were isolated and cultured according to modified protocol (Enumeration and Expansion of Mouse Mesenchymal Progenitor Cells Using MESENCUILT®, Stemcell Technologies, Canada). Briefly, bone marrow cells were flushed out from femurs and tibias with α-MEM (Invitrogen, Carlsbad, Calif., USA) supplemented with 20% FBS, and plated in petri dishes. Non-adherent cells were removed on day 3 and medium was replaced every 3 days. […] Colonies containing more than 50 cells were counted. BMSC colony forming efficiency was calculated as number of colonies formed by […] bone marrow nucleated cells. […]

Zmpste24−/− mice [3] = test: Survival and body weight of Zmpste24−/− mice treated via drinking water; type: in vivo, mouse; conditions: resveratrol 20 μg/ml in drinking water
Procedure: as §1, §3

p16ink4a = p16ink4a level in MEFs by Western blotting; type: cell-based, mouse; conditions: Zmpste24−/− MEFs
Procedure: as §2
As resveratrol enhances SIRT1 deacetylase activity by increasing its binding to lamin A, this Example examines the effects of resveratrol treatment on the early senescence in Zmpste24^−/− MEFs. […] As SIRT1 is more highly expressed in stem cells than in somatic differentiated cells and it is critical for maintaining stem cell self-renewal and function (Han et al., 2008; Lee et al., 2011; Saunders et al., 2010), we then tested effects of resveratrol on BMSCs.

## Oc1ccc(C=Cc2cc(O)cc(O)c2)cc1 [resveratrol]
Zmpste24−/− mice [1]
  level of acetyl H3K9 in BMSCs: decreased
  level of acetyl p53 in BMSCs: decreased
  level of catalase in BMSCs: enhanced
NM-associated SIRT1
  NM-associated SIRT1: increased
Zmpste24−/− mice [2]
  BMSC colony-forming efficiency: significantly increased
Zmpste24−/− mice [3]; by 26 weeks after birth
  animals still alive: ~60%
Zmpste24−/− mice [3]; compared to vehicle-treated controls
  body weight loss: significantly slowed down
Zmpste24−/− mice [3]; vehicle 20 weeks
  median survival: 27 weeks
Zmpste24−/− mice [3]; vehicle 27.5 weeks
  maximum lifespan (mean lifespan of the longest-lived 10% of the animals): 33.5 weeks
p16ink4a
  elevated levels of p16ink4a: did not reduce
